Experimental findings from US12459914B2, “Compounds and compositions for the treatment of tumors” (FONDAZIONE ISTITUTO ITALIANO DI TECNOLOGIA, priority 2019, dated 2025) are described below.

The target in one experiment is T1, BRC4/RAD51 interaction (Homo sapiens, UniProt Q06609).
T1 construct: purchased Creative Biomart (Rad51); Life Technologies (BRC4 peptide)
T1 sequence (Q06609 1-339): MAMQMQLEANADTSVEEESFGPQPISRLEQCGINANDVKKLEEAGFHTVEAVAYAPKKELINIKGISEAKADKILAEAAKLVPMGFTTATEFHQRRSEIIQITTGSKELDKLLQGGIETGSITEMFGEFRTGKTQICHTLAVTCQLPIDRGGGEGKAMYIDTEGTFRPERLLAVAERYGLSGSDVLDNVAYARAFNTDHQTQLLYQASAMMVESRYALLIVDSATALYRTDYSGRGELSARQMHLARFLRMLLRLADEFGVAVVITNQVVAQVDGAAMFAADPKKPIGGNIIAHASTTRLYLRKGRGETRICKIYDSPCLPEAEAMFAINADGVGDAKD
In words: Competitive ELISA assay, disruption of BRC4/RAD51 interaction. It is filed as binding. Conditions: human Rad51, biotinylated BRC4 peptide. As for the experimental part: A competitive ELISA screening assay using biotinylated BRC4 peptide to disrupt the BRC4/RAD51 interaction was performed by modifying the method described by Rajendra et al. (Nucleic Acids Res. 38 (2010) 82-96). BRC4-biotinylated peptide (N-term Biotin[…] from Life Technologies) was used to coat 384-well plates (Nunc). After washing with PBS containing 0.05% Tween-20 (PBST), and blocking with the solution BSA 1%/PBST, overnight hybridization with human Rad51 protein (NP_002866 Creative Biomart, NY) was performed. Test compounds were added in dose-response from […] in triplicate with constant DMSO 1%. Antibody raised against Rad51 (Millipore) and HRP-secondary antibody staining to develop the 3,30,5,50-tetramethyllbenzidine signal (Sigma) quenched with 1M HCl was used as the assay readout. Colorimetric measure was read on Victor5 (PerkinElmer) plate Reader. BRC4 and Rad51 were included in the assay as positive control. Results were analyzed using GraphPad Software.
(In an ELISA, binding on a coated surface is turned into a signal by an enzyme label.)

The next experiment has as its system BxPC-3 cells. In words: Cell viability assay (CellTiter Glo). Conditions: Homo sapiens, 72 h. The class given is cell-based. As to the method: BxPC-3 cells were grown in RPMI 1640 containing 10% FBS, 100 U/ml penicillin/streptomycin, 2 mM glutamine. All media and supplements were from Sigma-Aldrich. Cultures were routinely tested for Mycoplasma contamination. Treatments (Olaparib and BRCA2-Rad51 disruptors) were administered in culture medium supplemented with 0.6% DMSO. The same amount of DMSO was added to the control, untreated cultures.
Cell viability was assessed by CellTiter Glo, Luminescent Cell Viability Assay. Briefly, BxPC-3 cells (1×10^4/well) were plated in white 96-well plates with clear bottom and treated for 72 h with olaparib (10 μM) or with the BRCA2-Rad51 disruptors, given alone or in combination. After treatments, the plate was allowed to equilibrate at room temperature for 30 min and the CellTiter-Glo reactive was directly added to each well. The plate was kept on a shaker for 2 min to induce cell lysis and its luminescence was measured by using a Fluoroskan Ascent FL reader (Labsystems) using manufacturer's instructions.
A general note: ATP-based viability assays read luminescence as a measure of living cells.

For `CC(=O)N1N=C(c2c(-c3ccccc3)c3cc(Cl)ccc3[nH]c2=O)CC1c1ccc(C(C)(C)C)cc1` (stereo not shown) [d.17, 3-[2-acetyl-3-(4-tert-butylphenyl)-3,4-dihydropyrazol-5-yl]-6-chloro-4-phenyl-1H-quinolin-2-one], the EC50 on BRC4/RAD51 interaction and in the experiment with BxPC-3 cells was 15 µM in each case.

With `CC(=O)N1N=C(c2c(-c3ccccc3)c3cc(Cl)ccc3[nH]c2=O)CC1c1ccc2c(cnn2C)c1` (stereo not shown) [d.27, 3-[2-acetyl-3-(1-methylindazol-5-yl)-3,4-dihydropyrazol-5-yl]-6-chloro-4-phenyl-1H-quinolin-2-one], the EC50 (usually the concentration giving half of the maximal effect) turned out to be 9 µM at BRC4/RAD51 interaction and 21 µM with BxPC-3 cells.

Regarding `CCCn1cc(-c2ccc(C3CC(c4c(-c5ccccc5)c5cc(Cl)ccc5[nH]c4=O)=NN3C(=O)CCC(=O)O)cc2)cn1` (stereo not shown) [d.43, 4-[5-(6-chloro-2-oxo-4-phenyl-1H-quinolin-3-yl)-3-[4-(1-propylpyrazol-4-yl)phenyl]-3,4-dihydropyrazol-2-yl]-4-oxo-butanoic acid], the figures for the concentration giving a half-maximal response (EC50) on BRC4/RAD51 interaction and in the experiment on BxPC-3 cells were 65 µM and 74.2 µM, respectively.

As for `CC(C)(C)c1ccc(C2CC(c3c(-c4ccccc4)c4cc(Cl)ccc4[nH]c3=O)=NN2C(=O)CCC(=O)O)cc1` (stereo not shown) [d.16, 4-[3-(4-tert-butylphenyl)-5-(6-chloro-2-oxo-4-phenyl-1H-quinolin-3-yl)-3,4-dihydropyrazol-2-yl]-4-oxo-butanoic acid], the EC50 was greater than 100 µM on BRC4/RAD51 interaction and 71.2 µM with BxPC-3 cells.

For `Cn1cc2cc(C3CC(c4c(-c5ccccc5)c5cc(Cl)ccc5[nH]c4=O)=NN3C(=O)CCC(=O)O)ccc2n1` (stereo not shown) [d.28, 4-[5-(6-chloro-2-oxo-4-phenyl-1H-quinolin-3-yl)-3-(2-methylindazol-5-yl)-3,4-dihydropyrazol-2-yl]-4-oxo-butanoic acid], the EC50 at BRC4/RAD51 interaction and with BxPC-3 cells was greater than 100 µM in each case.

As to `CC(=O)N1N=C(c2c(-c3ccccc3)c3cc(Cl)ccc3[nH]c2=O)CC1c1ccccc1` (stereo not shown) [d.47, 3-(2-acetyl-3-phenyl-3,4-dihydropyrazol-5-yl)-6-chloro-4-phenyl-1H-quinolin-2-one], the results for the EC50 at BRC4/RAD51 interaction and in the experiment with BxPC-3 cells were 19 µM and 29.7 µM, respectively.

In the case of `Cn1ncc2cc(C3CC(c4c(-c5ccccc5)c5cc(Cl)ccc5[nH]c4=O)=NN3C(=O)CCC(=O)O)ccc21` (stereo not shown) [d.26, 4-[5-(6-chloro-2-oxo-4-phenyl-1H-quinolin-3-yl)-3-(1-methylindazol-5-yl)-3,4-dihydropyrazol-2-yl]-4-oxo-butanoic acid], the values for the concentration giving a half-maximal response (EC50) at BRC4/RAD51 interaction and in the experiment with BxPC-3 cells were 13 µM and greater than 50 µM, respectively.

`O=C(O)CCC(=O)N1N=C(c2c(-c3ccccc3)c3cc(Cl)ccc3[nH]c2=O)CC1c1ccco1` (stereo not shown) [d.20, 4-[5-(6-chloro-2-oxo-4-phenyl-1H-quinolin-3-yl)-3-(2-furyl)-3,4-dihydropyrazol-2-yl]-4-oxo-butanoic acid]: the EC50 on BRC4/RAD51 interaction and in the experiment on BxPC-3 cells was greater than 100 µM in each case.

Take `CCn1cc2cc(C3CC(c4c(-c5ccccc5)c5cc(Cl)ccc5[nH]c4=O)=NN3C(C)=O)ccc2n1` (stereo not shown) [d.30, 3-[2-acetyl-3-(2-ethylindazol-5-yl)-3,4-dihydropyrazol-5-yl]-6-chloro-4-phenyl-1H-quinolin-2-one]: the EC50 at BRC4/RAD51 interaction was greater than 100 µM; with BxPC-3 cells it was 16.8 µM.

For `O=C(O)CCC(=O)N1N=C(c2c(-c3ccccc3)c3cc(Cl)ccc3[nH]c2=O)CC1c1ccc(-c2ccc(F)cc2)cc1` (stereo not shown) [d.36, 4-[5-(6-chloro-2-oxo-4-phenyl-1H-quinolin-3-yl)-3-[4-(4-fluorophenyl)phenyl]-3,4-dihydropyrazol-2-yl]-4-oxo-butanoic acid], the results for the EC50 on BRC4/RAD51 interaction and in the experiment with BxPC-3 cells were 13 µM and 31 µM, respectively.

In the case of `CCn1cc2cc(C3CC(c4c(-c5ccccc5)c5cc(Cl)ccc5[nH]c4=O)=NN3C(=O)CCC(=O)O)ccc2n1` (stereo not shown) [d.29, 4-[5-(6-chloro-2-oxo-4-phenyl-1H-quinolin-3-yl)-3-(2-ethylindazol-5-yl)-3,4-dihydropyrazol-2-yl]-4-oxo-butanoic acid], the half-maximal effective concentration (EC50) is 28 µM at BRC4/RAD51 interaction and greater than 50 µM with BxPC-3 cells.

Take `CC(=O)N1N=C(c2c(-c3ccccc3)c3cc(Cl)ccc3[nH]c2=O)CC1c1ccc2c(ccn2C)c1` (stereo not shown) [d.23, 3-[2-acetyl-3-(1-methylindol-5-yl)-3,4-dihydropyrazol-5-yl]-6-chloro-4-phenyl-1H-quinolin-2-one]: the EC50 on BRC4/RAD51 interaction was 18 µM; with BxPC-3 cells it was 4.8 µM.

Regarding `O=C(O)CCC(=O)N1N=C(c2c(-c3ccccc3)c3cc(Cl)ccc3[nH]c2=O)CC1c1ccc(C(F)(F)F)cc1` (stereo not shown) [d.14, 4-[5-(6-chloro-2-oxo-4-phenyl-1H-quinolin-3-yl)-3-[4-(trifluoromethyl)phenyl]-3,4-dihydropyrazol-2-yl]-4-oxo-butanoic acid], the concentration for a half-maximal effect (EC50) on BRC4/RAD51 interaction stood at 29 µM; with BxPC-3 cells, 50 µM.

`CC(=O)N1N=C(c2c(-c3ccccc3)c3cc(Cl)ccc3[nH]c2=O)CC1c1ccc(C(F)(F)F)cc1` (stereo not shown) [d.15, 3-[2-acetyl-3-[4-(trifluoromethyl)phenyl]-3,4-dihydropyrazol-5-yl]-6-chloro-4-phenyl-1H-quinolin-2-one]: the values for the EC50 at BRC4/RAD51 interaction and in the experiment with BxPC-3 cells were greater than 100 µM and 11.4 µM, respectively.

For `COc1ccc(C2CC(c3c(-c4ccccc4)c4cc(Cl)ccc4[nH]c3=O)=NN2C(=O)CCC(=O)O)cc1F` (stereo not shown) [d.18, 4-[5-(6-chloro-2-oxo-4-phenyl-1H-quinolin-3-yl)-3-(3-fluoro-4-methoxy-phenyl)-3,4-dihydropyrazol-2-yl]-4-oxo-butanoic acid], the values for the EC50 at BRC4/RAD51 interaction and in the experiment with BxPC-3 cells were greater than 100 µM and 73 µM, respectively.

As for `COc1ccc(-c2c(C3=NN(C(=O)CCC(=O)O)C(c4ccc(F)cc4)C3)c(=O)[nH]c3ccc(Cl)cc23)cc1` (stereo not shown) [d.19, 4-[5-[6-chloro-4-(4-methoxyphenyl)-2-oxo-1H-quinolin-3-yl]-3-(4-fluorophenyl)-3,4-dihydropyrazol-2-yl]-4-oxo-butanoic acid], the EC50 was greater than 100 µM at BRC4/RAD51 interaction and 76 µM in the experiment with BxPC-3 cells.

With `CCn1ccc2cc(C3CC(c4c(-c5ccccc5)c5cc(Cl)ccc5[nH]c4=O)=NN3C(=O)CCC(=O)O)ccc21` (stereo not shown) [d.24, 4-[5-(6-chloro-2-oxo-4-phenyl-1H-quinolin-3-yl)-3-(1-ethylindol-5-yl)-3,4-dihydropyrazol-2-yl]-4-oxo-butanoic acid], the results for the half-maximal effective concentration (EC50) on BRC4/RAD51 interaction and in the experiment with BxPC-3 cells were 10 µM and greater than 40 µM, respectively.

In the case of `CCn1ncc2cc(C3CC(c4c(-c5ccccc5)c5cc(Cl)ccc5[nH]c4=O)=NN3C(=O)CCC(=O)O)ccc21` (stereo not shown) [d.31, 4-[5-(6-chloro-2-oxo-4-phenyl-1H-quinolin-3-yl)-3-(1-ethylindazol-5-yl)-3,4-dihydropyrazol-2-yl]-4-oxo-butanoic acid], the EC50 at BRC4/RAD51 interaction was greater than 100 µM; in the experiment on BxPC-3 cells, greater than 50 µM.

Regarding `CC(=O)N1N=C(c2c(Cc3ccccc3)c3cc(Cl)ccc3[nH]c2=O)CC1c1ccc(F)cc1` (stereo not shown) [d.51, 3-[2-acetyl-3-(4-fluorophenyl)-3,4-dihydropyrazol-5-yl]-4-benzyl-6-chloro-1H-quinolin-2-one], the results for the EC50 at BRC4/RAD51 interaction and in the experiment on BxPC-3 cells were 13 µM and 15.2 µM, respectively.

Regarding `O=C(O)CCC(=O)N1N=C(c2c(-c3ccccc3)c3cc(Cl)ccc3[nH]c2=O)CC1c1ccc(Br)cc1` (stereo not shown) [d.8, 4-[3-(4-bromophenyl)-5-(6-chloro-2-oxo-4-phenyl-1H-quinolin-3-yl)-3,4-dihydropyrazol-2-yl]-4-oxo-butanoic acid], the EC50 at BRC4/RAD51 interaction was determined as 16 µM; with BxPC-3 cells it was 48 µM.

`CC(=O)N1N=C(c2c(-c3ccccc3)c3cc(Cl)ccc3[nH]c2=O)CC1c1ccc(Br)cc1` (stereo not shown) [d.9, 3-[2-acetyl-3-(4-bromophenyl)-3,4-dihydropyrazol-5-yl]-6-chloro-4-phenyl-1H-quinolin-2-one]: the EC50 stood at 38 µM on BRC4/RAD51 interaction and 18 µM with BxPC-3 cells.

As to `O=C(O)CCC(=O)N1N=C(c2c(-c3ccccc3)c3cc(Cl)ccc3[nH]c2=O)CC1c1ccc(F)cc1` (stereo not shown) [d.1, 4-[5-(6-chloro-2-oxo-4-phenyl-1H-quinolin-3-yl)-3-(4-fluorophenyl)-3,4-dihydropyrazol-2-yl]-4-oxo-butanoic acid], the EC50 at BRC4/RAD51 interaction was 38 µM; in the experiment on BxPC-3 cells, greater than 50 µM.

For the compound `CC(=O)N1N=C(c2c(-c3ccccc3)c3cc(Cl)ccc3[nH]c2=O)CC1c1ccncc1` (stereo not shown) [d.97, 3-(1-acetyl-5-(pyridin-4-yl)-4,5-dihydro-1H-pyrazol-3-yl)-6-chloro-4-phenylquinolin-2 (1H)-one], the EC50 at BRC4/RAD51 interaction was 60 µM; in the experiment with BxPC-3 cells it was 24.3 µM.
